In ChEMBL document CHEMBL1649305, “Novel protease inhibitors (PIs) containing macrocyclic components and 3(R),3a(S),6a(R)-bis-tetrahydrofuranylurethane that are potent against multi-PI-resistant HIV-1 variants in vitro” (Antimicrob Agents Chemother, 2010):
The source made the active and inactive calls. No cut-off for these calls is given here.

Columns and labels:
[1] = system: Human immunodeficiency virus 1; assay: Antiviral activity against multidrug-resistant HIV1 isolate C containing protease L10I, I15V, K20R, L24I, M36I, M46L, I54V, I62V, L63P, K70Q, V82A, and L89M mutant infected in human PHA-PBMC cells by p24 Gag protein production inhibition assay; conditions: Human immunodeficiency virus 1, isolate C
[2] = system: Human immunodeficiency virus 1; assay: Antiviral activity against HIV1 NL4-3 infected in human MT4 cells at 1 uM after 37 passages by MTT assay; format: functional, organism-based
[3] = system: Human immunodeficiency virus 1; assay: Antiviral activity against wild type HIV1 NL4-3 infected in human MT4 cells by p24 Gag protein production inhibition assay; conditions: Human immunodeficiency virus 1, NL4-3, MT4
[4] = system: Human immunodeficiency virus 1; assay: Antiviral activity against HIV1 expressing protease L10F/M46M,I/Q61Q mutant infected in human MT4 cells selected at 1 uM of GRL-396 by MTT assay; format: functional, organism-based; conditions: Human immunodeficiency virus 1, MT4
[5] = system: Human immunodeficiency virus 1; assay: Antiviral activity against multidrug-resistant HIV1 isolate B containing protease L10I, K14R, L33I, M36I,M46I, F53I, K55R, I62V, L63P, A71V, G73S, V82A, L90M, and I93L mutant infected in human PHA-PBMC cells by p24 Gag protein production inhibition assay; conditions: Human immunodeficiency virus 1, isolate B
[6] = system: Human immunodeficiency virus 1; assay: Antiviral activity against wild type HIV1 ERS104 containing protease L63P mutant infected in human PHA-PBMC cells by p24 Gag protein production inhibition assay; conditions: Human immunodeficiency virus 1, ERS104, PBMC
[7] = system: Human immunodeficiency virus 1; assay: Antiviral activity against HIV1 expressing protease L10I/G48V/I54V/A71V/I84V/L90M mutant infected in human MT4 cells selected at 5 uM of saquinavir by p24 Gag protein production inhibition assay; conditions: Human immunodeficiency virus 1, MT4
[8] = system: Human immunodeficiency virus 1; assay: Antiviral activity against HIV1 expressing protease L10F/M46I/I54V/V82A mutant infected in human MT4 cells selected at 5 uM of Lopinavir by p24 Gag protein production inhibition assay; conditions: Human immunodeficiency virus 1, MT4
[9] = system: Human immunodeficiency virus 1; assay: Antiviral activity against multidrug-resistant HIV1 isolate MM containing L10I, K43T, M46L, I54V, L63P, A71V, V82A, L90M, and Q92K mutant infected in human PHA-PBMC cells by p24 Gag protein production inhibition assay; conditions: Human immunodeficiency virus 1, isolate MM
[10] = system: Human immunodeficiency virus 2; assay: Antiviral activity against HIV2 ROD infected in human MT2 cells by MTT assay; format: functional, organism-based; conditions: Human immunodeficiency virus 2, ISOLATE ROD
[11] = system: Human immunodeficiency virus 1; assay: Antiviral activity against multidrug-resistant HIV1 isolate TM containing L10I, K14R, R41K, M46L, I54V, L63P, A71V, V82A, L90M, and I93L mutant infected in human PHA-PBMC cells by p24 Gag protein production inhibition assay; conditions: Human immunodeficiency virus 1, isolate TM
[12] = system: Human immunodeficiency virus 2; assay: Antiviral activity against HIV2 EHO infected in human MT2 cells by MTT assay; format: functional, organism-based; conditions: Human immunodeficiency virus 2, EHO
[13] = system: Human immunodeficiency virus 1; assay: Antiviral activity against multidrug-resistant HIV1 isolate G containing L10I, V11I, T12E, I15V, L19I,R41K, M46L, L63P, A71T, V82A, and L90M mutant infected in human PHA-PBMC cells by p24 Gag protein production inhibition assay; conditions: Human immunodeficiency virus 1, isolate G
[14] = system: Human immunodeficiency virus 1; assay: Antiviral activity against HIV1 NL4-3 infected in human MT4 cells at 1 uM after 20 passages by MTT assay; format: functional, organism-based
[15] = system: MT2; assay: Ratio of EC50 for HIV2 ROD to EC50 for HIV1 LAI infected in human MT2 cells; format: functional
[16] = system: Human immunodeficiency virus 1; assay: Antiviral activity against multidrug-resistant HIV1 isolate JSL containing L10I, L24I, I33F, E35D, M36I, N37S, M46L, I54V, R57K, I62V, L63P, A71V, G73S, and V82A mutant infected in human PHA-PBMC cells by p24 Gag protein production inhibition assay; conditions: Human immunodeficiency virus 1, isolate JSL
[17] = system: Human immunodeficiency virus 1; assay: Antiviral activity against HIV1 expressing protease L23I/E34Q/K43I/M46I/I50L/G51A/L63P/A71V/V82A/T91A mutant infected in human MT4 cells selected at 5 uM of atazanavir by p24 Gag protein production inhibition assay; conditions: Human immunodeficiency virus 1, MT4
[18] = system: Human immunodeficiency virus 1; assay: Antiviral activity against HIV1 expressing protease L10I/L24I/M46I/V82I/I84V mutant infected in human MT4 cells selected after 50 passages of GRL-216 by MTT assay; format: functional, organism-based; conditions: Human immunodeficiency virus 1, MT4
[19] = system: Human immunodeficiency virus 1; assay: Antiviral activity against HIV1 expressing protease L10F/M46I/I50V/A71V/I84V/L90M mutant infected in human MT4 cells selected at 5 uM of amprenavir by p24 Gag protein production inhibition assay; conditions: Human immunodeficiency virus 1, MT4
[20] = system: Human immunodeficiency virus 1; assay: Antiviral activity against HIV1 NL4-3 infected in human MT4 cells at 1 uM after 33 passages by MTT assay; format: functional, organism-based
[21] = system: Human immunodeficiency virus 1; assay: Antiviral activity against HIV1 NL4-3 infected in human MT4 cells after 50 passages by MTT assay; format: functional, organism-based
[22] = system: Human immunodeficiency virus 1; assay: Antiviral activity against HIV1 LAI infected in human MT2 cells by MTT assay; format: functional, organism-based; conditions: Human immunodeficiency virus 1, LAI
[23] = system: Human immunodeficiency virus 1; assay: Antiviral activity against HIV1 expressing protease L10F/M46L/I50V/A71Vmutant infected in human MT4 cells selected at 1 uM of GRL-286 by MTT assay; format: functional, organism-based; conditions: Human immunodeficiency virus 1, MT4
[24] = system: MT2; assay: Ratio of EC50 for HIV2 EHO to EC50 for HIV1 LAI infected in human MT2 cells; format: functional
[25] = system: Human immunodeficiency virus 1; assay: Antiviral activity against HIV1 expressing protease L10F/M46I/T91S mutant infected in human MT4 cells selected at 1 uM of GRL-246 by MTT assay; format: functional, organism-based; conditions: Human immunodeficiency virus 1, MT4
[26] = Cytotoxicity against human MT2 cells after 7 days by MTT assay; format: cell-based
[27] = system: Human immunodeficiency virus 1; assay: Antiviral activity against HIV1 expressing protease L10F/D30N/K45I/A71V/T74S mutant infected in human MT4 cells selected at 5 uM of nelfinavir by MTT assay; format: functional, organism-based; conditions: Human immunodeficiency virus 1, MT4
[28] = Selectivity ratio of CC50 for human MT2 cells to EC50 for HIV1 LAI infected human MT2 cells; format: ADME, cell-based; conditions: MT2 cells (CC50) and HIV1 LAI infected MT2 cells (EC50)
[29] = system: Human immunodeficiency virus 1; assay: Ratio of EC50 for multidrug-resistant HIV1 isolate G containing L10I, V11I, T12E, I15V, L19I,R41K, M46L, L63P, A71T, V82A, and L90M mutant to EC50 for wild type HIV1 ERS104 containing protease […] infected in human PHA-PBMC cells; format: functional
[30] = target: Protease (Human immunodeficiency virus 1) (UniProt Q9YQ12); assay: Inhibition of protease dimerization in HIV1 infected in COS7 cells at 0.1 uM by FRET based assay; format: cell-based; conditions: COS-7
[31] = system: Human immunodeficiency virus 1; assay: Ratio of EC50 for multidrug-resistant HIV1 isolate C containing protease L10I, I15V, K20R, L24I, M36I, M46L, I54V, I62V, L63P, K70Q, V82A, and L89M mutant to EC50 for wild type HIV1 ERS104 containing protease L63P mutant infected in human PHA-PBMC cells
[32] = system: Human immunodeficiency virus 1; assay: Ratio of EC50 for multidrug-resistant HIV1 isolate JSL to EC50 for wild type HIV1 ERS104 containing protease […] infected in human PHA-PBMC cells
[33] = system: Human immunodeficiency virus 1; assay: Antiviral activity against HIV1 NL4-3 infected in human MT4 cells at 0.26 uM after 50 passages by MTT assay; format: functional, organism-based
[34] = system: Human immunodeficiency virus type 1 protease (Human immunodeficiency virus 1), Q72874 [L24I,V82I,I84V]; assay: Inhibition of protease L24I/V82I/I84V[…] dimerization in HIV1 infected in COS7 cells at 0.1 uM by FRET based assay; format: cell-based; conditions: COS-7

SMILES: CC(C)CN(C[C@@H](O)[C@H](Cc1ccccc1)NC(=O)O[C@H]1CCOC1)S(=O)(=O)c1ccc(N)cc1
- EC50 [1]: 370 nM
- Activity [2]: inactive
- EC50 [3]: 34 nM
- EC50 [4]: 350 nM
- EC50 [5]: > 1000 nM
- EC50 [6]: 30 nM
- EC50 [7]: 180 nM
- EC50 [8]: 260 nM
- EC50 [9]: 210 nM
- EC50 [10]: 420 nM
- EC50 [11]: 320 nM
- EC50 [12]: 120 nM
- EC50 [13]: 430 nM
- Activity [14]: inactive
- Ratio EC50 [15]: 12.3
- EC50 [16]: 620 nM
- EC50 [17]: 280 nM
- EC50 [18]: 260 nM
- EC50 [19]: > 1000 nM
- Activity [20]: inactive
- Activity [21]: inactive
- EC50 [22]: 24 nM
- EC50 [23]: > 1000 nM
- Ratio EC50 [24]: 3.53
- EC50 [25]: 340 nM
- CC50 at 168 h [26]: > 100000 nM
- EC50 [27]: 28 nM

SMILES: COc1ccc2c(c1)OCCC/C=C\CCCCN(C[C@@H](O)[C@H](Cc1ccccc1)NC(=O)O[C@H]1CO[C@H]3OCC[C@H]31)S2(=O)=O
- EC50 [1]: 29 nM
- Activity [2]: inactive
- EC50 [3]: 9 nM
- EC50 [4]: 250 nM
- EC50 [5]: 89 nM
- EC50 [6]: 7 nM
- EC50 [7]: 46 nM
- EC50 [8]: 350 nM
- EC50 [9]: 55 nM
- EC50 [10]: 25 nM
- EC50 [11]: 72 nM
- EC50 [12]: 18 nM
- selectivity ratio [28]: 8280
- EC50 [13]: 28 nM
- Activity [14]: inactive
- EC50 [16]: 210 nM
- EC50 [17]: 30 nM
- EC50 [18]: 190 nM
- EC50 [19]: > 1000 nM
- Activity [20]: inactive
- Activity [21]: inactive
- EC50 [22]: 4 nM
- EC50 [23]: > 1000 nM
- EC50 [25]: 330 nM
- Ratio EC50 [29]: 4
- inhibition [30]: Active
- Ratio EC50 [31]: 4
- CC50 at 168 h [26]: 33100 nM
- EC50 [27]: 41 nM
- Ratio EC50 [32]: 15

SMILES: COc1ccc2c(c1)OCC/C=C\CCCCN(C[C@@H](O)[C@H](Cc1ccccc1)NC(=O)O[C@H]1CO[C@H]3OCC[C@H]31)S2(=O)=O
- EC50 [1]: 44 nM
- EC50 [3]: 5 nM
- EC50 [4]: 73 nM
- EC50 [5]: 37 nM
- EC50 [6]: 5 nM
- Activity [33]: Active
- EC50 [7]: 20 nM
- EC50 [8]: 35 nM
- inhibition [34]: Active
- EC50 [9]: 33 nM
- EC50 [10]: 17 nM
- EC50 [11]: 27 nM
- EC50 [12]: 10 nM
- EC50 [13]: 57 nM
- EC50 [16]: 73 nM
- EC50 [17]: 23 nM
- EC50 [18]: 94 nM
- EC50 [19]: > 1000 nM
- EC50 [22]: 2 nM
- EC50 [23]: > 1000 nM
- EC50 [25]: 300 nM
- inhibition [30]: Active
- CC50 at 168 h [26]: 48800 nM
- EC50 [27]: 40 nM
